Patent US20220153746A1, “NITROGEN OXIDE-DONATING PDE-5 AND/OR PDE-6 INHIBITOR COMPOUNDS, AND USES THEREOF” (ILDONG PHARMACEUTICAL CO., LTD., priority 2020, published 2022)
Like-named read-outs stand apart in the source and are kept apart here.

Experiment: PK Phase (Group 2): plasma concentrations and pharmacokinetics of Compound 18 and its metabolite Compound 4 after once daily ocular instillation of Compound 18 nanosuspension for 7 days
Assay type: in vivo, New Zealand white rabbits
Conditions: male, New Zealand white, rabbit, plasma; for concentration at 8 h / concentration at 24 h: 0.821 mg/kg/day; for Cmax / Tmax / AUC(0-t): topical or ocular, 0.8 mg/kg; for AUC(0-t): read-out: AUC0-24
From the text: This example illustrates the procedures and results for the levels of Compound 18 and its metabolite Compound 4 in plasma and ocular tissues of normotensive rabbits following ocular instillation of Compound 18 once daily for 7 consecutive days.
Twenty five (25) male New Zealand white rabbits were divided into 5 groups of varying amounts of animals per group.
The Test article, Compound 18 was formulated as a 2% nanosuspension in DI water containing 0.2% PS80 (polyoxyethylenesorbitan, monooleate (Tween 80)) and 0.4% HPMC (hydroxypropylmethylcellulose) at pH 6.77. Referred to herein as “Compound 18 nanosuspension.”
The study consisted of three groups (Groups 1-3) of 19 male rabbits (NZW) that underwent once daily morning ocular installation (1 eyedrop) for 7 consecutive days (Day 0-6). Groups 4-5 each consisted of 3 male rabbits (NZW) that were not dosed.
Blood samples (1 mL) were collected from the jugular vein at the intervals set out below for each group. The samples were then inverted several times following collection and held on wet ice until centrifuged. Samples were centrifuged within 60 minutes of collection under refrigeration (set at 5° C. for 10 minutes at 2000 g. […]
Plasma and tissue samples from treated animals (Groups 1-3) were analyzed for Compound 18 and its metabolite Compound 4 concentrations by LC-MS/MS.
Pharmacokinetic analysis was conducted using WinNonlin Version 6.2.1 (Pharsight, Mountain View, Calif.), operating as a validated software system. Noncompartmental analysis was conducted using the extravascular administration model for ocular instillation dosing.
The peak plasma concentration, time to achieve peak plasma concentration, half-life, and area under the plasma concentration-time curve (Cmax, Tmax, T1/2, and AUC) were calculated from the PK phase individual animal plasma concentrations for each sampling time/dose group for Compound 18 and its metabolite Compound 4.
BA Assay: Quantitation Range 0.05 to 100 ng/mL for Compound 18, 0.15 to 100 ng/mL for Compound 4.
Plasma calibration standards (PLSTD-A) with Compound 18 concentrations ranging from 0.0500 to 100 ng/mL were prepared by spiking control rabbit plasma with appropriate calibration curve spiking solutions (SS-A). PLQC-A samples with concentrations of 0.150, 5.00, 50.0, and 80.0 ng/mL were prepared by spiking control rabbit plasma with appropriate SS-A-QC spiking solutions.
Plasma calibration standards (PLSTD-B) with Compound 4 concentrations ranging from 0.150 to 100 ng/mL were prepared by spiking control rabbit plasma with appropriate calibration curve spiking solutions (SS-B). PLQC-B samples with concentrations of 0.450, 5.00, 50.0, and 80.0 ng/mL were prepared by spiking control rabbit plasma with appropriate SS-B-QC spiking solutions. PLQC-B-Dil samples at 800 ng/mL were prepared by spiking control rabbit plasma with the SS-B-QC-Dil spiking solution at 16,000 ng/mL, and then diluted 20× with control rabbit plasma prior to extraction.
1. Thaw plasma standards, plasma QC samples, ocular tissue QC samples, incurred plasma samples and ocular tissue samples (AH/VH) (if applicable) on wet ice. Control plasma can be thawed in tepid water. Vortex before taking aliquots.
2. Pipet 50 μL of water for Reagent Blank, 50 μL of control plasma for Double Blank and Blank, 50 μL of pre-spiked plasma for Standards and QC samples, 50 μL of incurred plasma samples (if applicable) into a 96 well plate.
5. Add 200 μL of working internal standard (WIS) solution to all remaining samples.
6. Seal the plate and vortex for approximately 5 minutes. Centrifuge the plate at 3500 rpm for 10 minutes at ˜4° C.
7. Transfer ˜200 μL of each sample supernatant into the appropriate wells of a 96 well plate. Submit for LC MS/MS analysis.
A total of 25 rabbits were used for this study, including 19 treated rabbits and 6 control rabbits. […]

[1] = other: ocular instillation (eye drop), Mean of 4 animals, BQL set to 0, read-out: Day 7 Compound 18 Plasma Concentration
[2] = other: ocular instillation (eye drop), animal 207666, read-out: Day 7 Compound 18 Plasma Concentration
[3] = other: ocular instillation, 0.8 mg/kg/day, Mean of 4 animals, BQL set to 0, read-out: Day 1 Compound 18 Plasma Concentration
[4] = other: ocular instillation, 0.8 mg/kg/day, animal 207666, read-out: Day 1 Compound 18 Plasma Concentration
[5] = other: ocular instillation, 0.8 mg/kg/day, animal 207667, read-out: Day 1 Compound 18 Plasma Concentration
[6] = Day 1, Compound 18 0.8 mg/kg ocular instillation, Mean, n=4
[7] = Day 1, Compound 18 0.8 mg/kg ocular instillation, animal 207664
[8] = Day 1, Compound 18 0.8 mg/kg ocular instillation, animal 207665
[9] = Day 1, Compound 18 0.8 mg/kg ocular instillation, animal 207666
[10] = Day 1, Compound 18 0.8 mg/kg ocular instillation, animal 207667
[11] = Day 7, Compound 18 0.8 mg/kg ocular instillation, Mean, n=4
[12] = Day 7, Compound 18 0.8 mg/kg ocular instillation, animal 207664
[13] = Day 7, Compound 18 0.8 mg/kg ocular instillation, animal 207665
[14] = Day 7, Compound 18 0.8 mg/kg ocular instillation, animal 207666
[15] = Day 7, Compound 18 0.8 mg/kg ocular instillation, animal 207667

In the case of `CCCc1nn(C)c2c(=O)[nH]c(-c3cc(S(=O)(=O)N4CC(CCCO[N+](=O)[O-])C4)ccc3OCC)nc12` [Compound 18, 3-(1-((4-ethoxy-3-(1-methyl-7-oxo-3-propyl-6,7-dihydro-1H-pyrazolo[4,3-d]pyrimidin-5-yl)phenyl)sulfonyl)azetidin-3-yl)propyl nitrate], the concentration at 8 h [1] is reported as 0.0279 ng/mL, the concentration at 8 h (other: ocular instillation (eye drop), animal 207665, read-out: Day 7 Compound 18 Plasma Concentration) is reported as 0.0505 ng/mL and the concentration at 8 h [2] is reported as 0.0611 ng/mL. It also gave a concentration at 24 h (other: ocular instillation (eye drop), Mean of 4 animals, BQL set to 0, read-out: Day 1 Compound 18 Plasma Concentration) of 0.0171 ng/mL, a concentration at 24 h [1] of 0.0401 ng/mL and a concentration at 24 h (other: ocular instillation (eye drop), animal 207666, read-out: Day 1 Compound 18 Plasma Concentration) of 0.0682 ng/mL. It also gave a concentration at 24 h [2] of 0.0989 ng/mL, a concentration at 24 h (other: ocular instillation (eye drop), animal 207667, read-out: Day 7 Compound 18 Plasma Concentration) of 0.0614 ng/mL and a concentration at 0.5 h (other: ocular instillation (eye drop), 2 mg/day, animal 207664, read-out: Day 1 Compound 18 Plasma Concentration) of 0.0863 ng/mL. It also gave a concentration at 0.5 h [3] of 0.161 ng/mL, a concentration at 0.5 h (other: ocular instillation, 0.8 mg/kg/day, animal 207665, read-out: Day 1 Compound 18 Plasma Concentration) of 0.0721 ng/mL and a concentration at 0.5 h [4] of 0.313 ng/mL. For the same compound, the concentration at 0.5 h [5] was 0.171 ng/mL, the concentration at 1 h [3] was 0.0601 ng/mL and the concentration at 1 h [4] was 0.183 ng/mL. It also gave a concentration at 1 h [5] of 0.0575 ng/mL, a Cmax [6] of 0.161 ± 0.111 ng/mL and a Tmax [6] of 30 min. For the same compound, the AUC(0-t) [6] was 0.311 ± 0.488 ng·h/mL, the Cmax [7] was 0.0863 ng/mL and the Tmax [7] was 30 min. The AUC(0-t) [7] was 0.0216 ng·h/mL, the Cmax [8] was 0.0721 ng/mL and the Tmax [8] was 30 min. The AUC(0-t) [8] was 0.018 ng·h/mL, the Cmax [9] was 0.313 ng/mL and the Tmax [9] was 30 min. It also gave an AUC(0-t) [9] of 1.04 ng·h/mL, a Cmax [10] of 0.171 ng/mL and a Tmax [10] of 30 min. It also gave an AUC(0-t) [10] of 0.17 ng·h/mL, a Cmax [11] of 0.17 ± 0.105 ng/mL and a Tmax [11] of 156 ± 216 min. The AUC(0-t) [11] was 0.754 ± 0.794 ng·h/mL, the Cmax [12] was 0.306 ng/mL and the Tmax [12] was 60 min. It also gave an AUC(0-t) [12] of 0.372 ng·h/mL, a Cmax [13] of 0.0505 ng/mL and a Tmax [13] of 480 min. It also gave an AUC(0-t) [13] of 0.101 ng·h/mL, a Cmax [14] of 0.163 ng/mL and a Tmax [14] of 30 min. It also gave an AUC(0-t) [14] of 1.9 ng·h/mL, a Cmax [15] of 0.161 ng/mL and a Tmax [15] of 60 min. For the same compound, the AUC(0-t) [15] was 0.644 ng·h/mL.
